Results taken from patent publication US12653809B2, “Urea, amide, and substituted heteroaryl compounds for CBL-B inhibition” (Nurix Therapeutics, Inc., priority 2019, dated 2026).
Where two headings read alike, the source gives them in different places.

Molecular target: T1, Cbl-b (truncated variant, UniProt number Q13191) (Homo sapiens, UniProt Q13191)
T1 construct: made in house
Experiment: Cbl-b activity assay (TR-FRET, interaction of Cbl-b with UbcH5B-Ub)
Type: biochemical
Excerpt: As described in Biological Example 1A, a Cbl-b activity assay (Cbl-b inhibition assay) used to measure the IC50 values for Cbl-b inhibition uses a mixture comprising candidate compound, Cbl-b (truncated, with an Avitag, and biotinylated), a fluorescently-labeled E2 enzyme UbcH5B labelled with ubiquitin conjugated to BODIPY-fluorescein (UbcH5B-Ub), streptavidin-terbium, and assay buffer. In one embodiment, the Cbl-b activity assay (Cbl-b inhibition assay) used to measure IC50 for inhibition of Cbl-b uses the conditions described in Biological Example 1A with 12 nM Cbl-b. […] In another embodiment, the Cbl-b activity assay (Cbl-b inhibition assay) used to measure IC50 for inhibition of Cbl-b uses the conditions described in Biological Example 1B, with candidate compound, 0.125 nM Cbl-b (truncated, with an avitag, and biotinylated), fluorescently labelled inhibitor probe, and assay buffer. Displacement of the inhibitor probe indicates Cbl-b activity.
Candidate compounds isolated from screening assays were evaluated for their ability to bind and inhibit Cbl-b, an E3 ubiquitin-protein ligase.
The ability of candidate compounds to inhibit Cbl-b activity was measured by monitoring the interaction of Cbl-b with UbcH5B-Ub in the presence of the candidate compound. A truncated variant of Cbl-b (UniProt number Q13191; SEQ ID NO:1) containing an Avitag at its N-terminus was co-expressed with BirA biotin ligase and purified using a standard protocol (see Dou et al., Nature Structural and Molecular Biology 8: 982-987, 2013; Avidity LLC).
Fluorescently labeled UbcH5B-Ub was prepared by conjugating ubiquitin (Ub), labeled at its N-terminus with Bodipy-Fluorescein, to UbcH5B, an E2 enzyme, harboring a cysteine to lysine mutation at position 85. This mutation is similar to a mutation that was previously reported (see Dou et al., Nature Structural and Molecular Biology 8: 982-987, 2013). Cbl-b activity assays were performed in a 384-well plate at room temperature in a 10 μL reaction volume by pre-incubating 12 nM Cbl-b (final concentration) in an assay buffer containing 50 mM HEPES pH 7.0, 100 mM NaCl, 0.01% Triton X-100, 0.01% BSA, and 1 mM DTT in the presence of a candidate compound in 1% DMSO (final concentration, High Conditions) for one hour. After incubation in the presence of the candidate compound, the plate was incubated for an additional 1.5 hours in the presence of 60 nM Src kinase with 1 mM ATP and 5 mM MgCl2 (final concentrations). Alternatively, compounds were tested as described above with assay buffer containing 50 mM NaCl instead of 100 mM NaCl and 30 nM Src kinase instead of 60 nM Src kinase (Low Conditions). Src kinase was prepared as previously described (see Kobashigawa et al., Proc Natl Acad Sci USA, 108: 20579-20584, 2011). […] The plate was incubated for one hour. Following the one hour incubation, the plates were read for TR-FRET signal at 520/620 nm using Envision plate reader (Perkin Elmer). The presence of a FRET signal that indicated Cbl-b was not inhibited by the compound candidate. The absence of a FRET signal indicated Cbl-b was inhibited by the compound candidate and was therefore a Cbl-b inhibitor.
The resulting data for the Cbl-b activity assays were analyzed using standard methods to report the IC50 values of the tested compounds (Tables 3-4). The resulting data for the Cbl-b binding assay was solvent corrected and double-referenced prior to analysis. All data were globally fit to a steady-state affinity and kinetic binding model where applicable. Compounds were ranked into bins A through D as follows for IC50: A indicates <0.1 μM, B indicates 0.1 μM≤IC50<1 μM, C indicates 1 μM≤IC50<5 μM, and D indicates 5 μM≤IC50.

[1] = Biological Example 1A, low or high conditions not stated, read-out: IC50 values in the Cbl-b inhibition assay of Biological Example 1A
[2] = high conditions: 100 mM NaCl, 60 nM Src kinase, 12 nM Cbl-b, read-out: Cbl-b activity IC50

T1 sequence (Q13191 36-427): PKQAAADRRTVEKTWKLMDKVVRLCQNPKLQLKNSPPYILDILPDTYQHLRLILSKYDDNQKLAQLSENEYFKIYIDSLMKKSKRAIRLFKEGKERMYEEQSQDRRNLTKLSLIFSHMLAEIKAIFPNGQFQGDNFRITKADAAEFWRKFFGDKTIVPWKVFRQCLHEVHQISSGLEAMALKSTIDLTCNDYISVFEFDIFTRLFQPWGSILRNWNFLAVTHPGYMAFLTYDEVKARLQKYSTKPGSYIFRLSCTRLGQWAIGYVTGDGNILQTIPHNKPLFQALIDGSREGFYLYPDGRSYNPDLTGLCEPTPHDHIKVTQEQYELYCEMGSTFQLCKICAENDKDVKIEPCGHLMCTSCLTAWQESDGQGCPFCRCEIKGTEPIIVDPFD

SMILES | IC50 [1] | IC50 [2]
CNC(=O)C1(C(F)(F)F)CCN(C(=O)Nc2cccc([C@H](C)Sc3nncn3C)c2)C1 (stereo partly drawn) [Example 50, N^3-methyl-N^1-(3-((S)-1-((4-methyl-4H-1,2,4-triazol-3-yl)thio)ethyl)phenyl)-3-(trifluoromethyl)pyrrolidine-1,3-dicarboxamide] | 1 to 5 µM | 1 to 5 µM
CC(C)C1CN(C(=O)Nc2cccc([C@H](C)Sc3nncn3C)c2)CCO1 (stereo partly drawn) [Example 51, 2-isopropyl-N-(3-((S)-1-((4-methyl-4H-1,2,4-triazol-3-yl)thio)ethyl)phenyl)morpholine-4-carboxamide] |  | ≥ 5 µM
C[C@H](Sc1nncn1C)c1cccc(NC(=O)N2CC(OC(F)(F)F)C2)c1 [Example 52, (S)—N-(3-(1-((4-methyl-4H-1,2,4-triazol-3-yl)thio)ethyl)phenyl)-3-(trifluoromethoxy)azetidine-1-carboxamide] |  | ≥ 5 µM
C[C@H](Sc1nncn1C)c1cccc(NC(=O)N2CC(c3cnn(C)c3)C(C)(C)C2)c1 (stereo partly drawn) [Example 53, 3,3-dimethyl-4-(1-methyl-1H-pyrazol-4-yl)-N-(3-((S)-1-((4-methyl-4H-1,2,4-triazol-3-yl)thio)ethyl)phenyl)pyrrolidine-1-carboxamide] |  | ≥ 5 µM
CC1CN(C(=O)Nc2cccc([C@H](C)Sc3nncn3C)c2)CC1CO (stereo partly drawn) [Example 54, 3-(hydroxymethyl)-4-methyl-N-(3-((S)-1-((4-methyl-4H-1,2,4-triazol-3-yl)thio)ethyl)phenyl)pyrrolidine-1-carboxamide] |  | ≥ 5 µM
Cc1ccc(-c2cc(-c3cccc([C@H](C)Sc4nncn4C)c3)on2)cc1 [Example 55, (S)-5-(3-(1-(4-methyl-4H-1,2,4-triazol-3-ylthio)ethyl)phenyl)-3-p-tolylisoxazole] |  | 1 to 5 µM
Cc1cccc(-c2cc(-c3cccc([C@H](C)Sc4nncn4C)c3)on2)c1 [Example 56, 4-methyl-3-[[(1S)-1-[3-[3-(3-methylphenyl)-1,2-oxazol-5-yl]phenyl]ethyl]sulfanyl]-4H-1,2,4-triazole] |  | 1 to 5 µM
C[C@H](Sc1nncn1C)c1cccc(-c2cc(-c3ccc(Cl)cc3)no2)c1 [Example 57, (S)-3-(4-chlorophenyl)-5-(3-(1-((4-methyl-4H-1,2,4-triazol-3-yl)thio)ethyl)phenyl)isoxazole] |  | 1 to 5 µM
C[C@H](Sc1nncn1C)c1cccc(-c2cc(-c3cccc(Cl)c3)no2)c1 [Example 58, 3-[[(1S)-1-[3-[3-(3-chlorophenyl)-1,2-oxazol-5-yl]phenyl]ethyl]sulfanyl]-4-methyl-4H-1,2,4-triazole] |  | 1 to 5 µM
COc1ccc(-c2cc(-c3cccc([C@H](C)Sc4nncn4C)c3)on2)cc1 [Example 59, (S)-3-(4-methoxyphenyl)-5-(3-(1-((4-methyl-4H-1,2,4-triazol-3-yl)thio)ethyl)phenyl)isoxazole] |  | 1 to 5 µM
COc1cccc(-c2cc(-c3cccc([C@H](C)Sc4nncn4C)c3)on2)c1 [Example 60, (S)-3-(3-methoxyphenyl)-5-(3-(1-((4-methyl-4H-1,2,4-triazol-3-yl)thio)ethyl)phenyl)isoxazole] |  | 1 to 5 µM
C[C@H](Sc1nncn1C)c1cccc(-c2cc(-c3ccc(C#N)cc3)no2)c1 [Example 61, (S)-4-(5-(3-(1-(4-methyl-4H-1,2,4-triazol-3-ylthio)ethyl)phenyl)isoxazol-3-yl)benzonitrile] |  | 1 to 5 µM
C[C@H](Sc1nncn1C)c1cccc(-c2cc(-c3cccc(C#N)c3)no2)c1 [Example 62, (S)-3-(5-(3-(1-(4-methyl-4H-1,2,4-triazol-3-ylthio)ethyl)phenyl)isoxazol-3-yl)benzonitrile] |  | 1 to 5 µM
C[C@H](Sc1nncn1C)c1cccc(-c2cc(-c3ccc(C(=O)O)cc3)no2)c1 [Example 63, 4-(5-{3-[(1S)-1-[(4-methyl-4H-1,2,4-triazol-3-yl)sulfanyl]ethyl]phenyl}-1,2-oxazol-3-yl)benzoic acid] | ≥ 5 µM | ≥ 5 µM
C[C@H](Sc1nncn1C)c1cccc(-c2cc(-c3ccc(CO)cc3)no2)c1 [Example 64, (S)-(4-(5-(3-(1-(4-methyl-4H-1,2,4-triazol-3-ylthio)ethyl)phenyl)isoxazol-3-yl)phenyl)methanol] | 1 to 5 µM | 1 to 5 µM
CNC(=O)c1ccc(-c2cc(-c3cccc([C@H](C)Sc4nncn4C)c3)on2)cc1 [Example 65, (S)—N-methyl-4-(5-(3-(1-(4-methyl-4H-1,2,4-triazol-3-ylthio)ethyl)phenyl)isoxazol-3-yl)benzamide] | 1 to 5 µM | 1 to 5 µM
C[C@H](Sc1nncn1C)c1cccc(-c2cc(-c3ccc(S(C)(=O)=O)cc3)no2)c1 [Example 66, ((S)-5-(3-(1-(4-methyl-4H-1,2,4-triazol-3-yl)thio)ethyl)phenyl)-3-(4-(methylsulfonyl)phenyl)isoxazole] | ≥ 5 µM | ≥ 5 µM
C[C@H](Sc1nncn1C)c1cccc(-c2cc(-c3ccccc3)no2)c1 [Example 67, (S)-5-(3-(1-((4-methyl-4H-1,2,4-triazol-3-yl)thio)ethyl)phenyl)-3-phenylisoxazole] | 1 to 5 µM | 1 to 5 µM
C[C@@H](Sc1nncn1C)c1cccc(-c2cc(-c3ccccc3)no2)c1 [Example 68, (R)-5-(3-(1-((4-methyl-4H-1,2,4-triazol-3-yl)thio)ethyl)phenyl)-3-phenylisoxazole] | ≥ 5 µM | ≥ 5 µM
CC(Sc1nncn1C)c1cccc(-c2cc(-c3cccc(C(F)(F)F)c3)no2)c1 (stereo not drawn) [Example 69, 5-(3-(1-((4-methyl-4H-1,2,4-triazol-3-yl)thio)ethyl)phenyl)-3-(3-(trifluoromethyl)phenyl)isoxazole] | 1 to 5 µM | 1 to 5 µM
CC(Sc1nncn1C)c1cccc(-c2cc(-c3ccccn3)no2)c1 (stereo not drawn) [Example 70, 5-(3-(1-((4-methyl-4H-1,2,4-triazol-3-yl)thio)ethyl)phenyl)-3-(pyridin-2-yl)isoxazole] | ≥ 5 µM | ≥ 5 µM
CC(Sc1nncn1C)c1ccnc(-c2cc(-c3ccccc3)no2)c1 (stereo not drawn) [Example 71, 5-(4-(1-((4-methyl-4H-1,2,4-triazol-3-yl)thio)ethyl)pyridin-2-yl)-3-phenylisoxazole] | ≥ 5 µM | ≥ 5 µM
C[C@H](Sc1nncn1C)c1cccc(-n2ncc(-c3ccc(Cl)cc3)n2)c1 [Example 72, (S)-4-(4-chlorophenyl)-2-(3-(1-((4-methyl-4H-1,2,4-triazol-3-yl)thio)ethyl)phenyl)-2H-1,2,3-triazole] | 1 to 5 µM | 1 to 5 µM
C[C@H](Sc1nncn1C)c1cccc(-n2cc(-c3ccc(Cl)cc3)nn2)c1 [Example 73, (S)-4-(4-chlorophenyl)-1-(3-(1-((4-methyl-4H-1,2,4-triazol-3-yl)thio)ethyl)phenyl)-1H-1,2,3-triazole] | 1 to 5 µM | 1 to 5 µM
COc1ccc(-c2cnn(-c3cccc([C@H](C)Sc4nncn4C)c3)n2)cc1 [Example 74, (S)-4-(4-methoxyphenyl)-2-(3-(1-((4-methyl-4H-1,2,4-triazol-3-yl)thio)ethyl)phenyl)-2H-1,2,3-triazole] | 0.1 to 1 µM | 0.1 to 1 µM
COc1ccc(-c2cn(-c3cccc([C@H](C)Sc4nncn4C)c3)nn2)cc1 [Example 75, (S)-4-(4-methoxyphenyl)-1-(3-(1-((4-methyl-4H-1,2,4-triazol-3-yl)thio)ethyl)phenyl)-1H-1,2,3-triazole] |  | 1 to 5 µM
